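Values below derive from 48-hour exposures of cells grown in 96-well plates, with endpoints linearly interpolated between the two concentrations bracketing the appropriate inhibition level. The concentration for 50% growth inhibition is given as GI50.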 Active and inactive are the calls of the source. No stated cut-off is given here; in the data, active = GI50 up to about 1.1 µM and inactive = higher. Square brackets hold non-standard residues; d marks the D form. Peptide text beside a SMILES is read from it. * marks the point of attachment. Boc = CC(C)(C)OC(=O)*; Lac = C[CH](O)C(=O)O; OBn = c1ccc(CO*)cc1 Bounds are passed on as bounds.

Data on 13 compounds can be found in ChEMBL document CHEMBL1201862, “PubChem BioAssay data set” (2004).

Among the test systems are UACC-257; DU-145; SR; UACC-62; HOP-92; A549; MDA-N; HOP-62; NCI/ADR-RES; BT-549; MDA-MB-231; NCI-H226; EKVX; SF-539; Hs-578T; LOX IMVI; OVCAR-5; ACHN.
Test in all cases: NCI anticancer screen, dose series, 48 h

Consider `COc1cc2cc(C(=O)N3CC(CCl)c4ccc(NO)cc43)[nH]c2c(OC)c1OC` (stereo not given), for which the GI50 in the test on UACC-257 was 0.201 µM (active); in the test with DU-145, 0.0953 µM (active); with SR, 0.0577 µM (active); with UACC-62, 0.0991 µM (active); in the test on HOP-92, 0.352 µM (active); in the test on A549, 0.0897 µM (active). Besides, the GI50 in the test on MDA-N was 0.249 µM (active); in the test on HOP-62, 0.0925 µM (active); with NCI/ADR-RES it was 0.0723 µM (active); with BT-549, 0.253 µM (active); with MDA-MB-231, 0.254 µM (active); in the test on NCI-H226, 0.244 µM (active). Also, the GI50 in the test with EKVX is 0.35 µM (active); in the test on SF-539, 0.353 µM (active); with Hs-578T, 0.296 µM (active); in the test with LOX IMVI, 0.164 µM (active); in the test on OVCAR-5, 0.15 µM (active); in the test on ACHN, 0.091 µM (active).
Take `C[C@H]1S[C@@H](c2ccc(Cl)cc2Cl)N(NC(=O)c2ccncc2)C1=O`: the GI50 is 71.3 µM (inactive) in the test on DU-145; 79.4 µM (inactive) in the test on SR; 29.6 µM (inactive) in the test with UACC-62; 60.5 µM (inactive) in the test with HOP-92; > 10 µM (inactive) in the test on MDA-N; > 100 µM (inactive) with HOP-62. Moreover, the GI50 in the test on NCI/ADR-RES was 21.7 µM (inactive); with BT-549 it was 39.4 µM (inactive); in the test with MDA-MB-231, 49.2 µM (inactive); in the test on NCI-H226, 41.6 µM (inactive); in the test with Hs-578T, 94.2 µM (inactive); in the test on OVCAR-5, 95.9 µM (inactive).
Regarding `Cc1n[nH]c(CC#N)n1`, the GI50 in the test with UACC-257, in the test with DU-145, with SR, in the test with UACC-62, with HOP-92 and in the test with A549 was > 100 µM (inactive) throughout. Besides, the GI50 with MDA-N, with HOP-62, in the test on NCI/ADR-RES, in the test with BT-549, in the test on MDA-MB-231 and with EKVX was > 100 µM (inactive) each time. In addition, the GI50 in the test on SF-539, in the test with LOX IMVI, with OVCAR-5 and in the test with ACHN was > 100 µM (inactive) in each case.
For the compound `Nc1ccccc1C(=O)N/N=C1\C(=O)Nc2ccccc21`, the GI50 with UACC-257, in the test with DU-145, in the test with SR, with UACC-62, with A549 and with MDA-N was > 100 µM (inactive) in each case. Moreover, the GI50 is 43.6 µM (inactive) in the test on HOP-62; > 100 µM (inactive) with NCI/ADR-RES; 30.8 µM (inactive) in the test with BT-549; 19.6 µM (inactive) in the test with MDA-MB-231; > 100 µM (inactive) in the test with NCI-H226; > 100 µM (inactive) in the test with EKVX. Further, the GI50 in the test on SF-539 is > 100 µM (inactive); with Hs-578T, 37.7 µM (inactive); in the test on OVCAR-5, > 100 µM (inactive); with ACHN, 56.4 µM (inactive).
As for `CCC(=O)NC(Nc1cccc(F)c1)(C(F)(F)F)C(F)(F)F`, the GI50 with UACC-257, with DU-145, in the test with SR, in the test with UACC-62, in the test on HOP-92 and with A549 was > 100 µM (inactive) each time. In addition, the GI50 in the test with MDA-N is > 100 µM (inactive); in the test on NCI/ADR-RES it was > 100 µM (inactive); in the test with BT-549 it was > 100 µM (inactive); with MDA-MB-231, > 100 µM (inactive); in the test with EKVX, 67.3 µM (inactive); in the test on SF-539, > 100 µM (inactive). In addition, the GI50 was 98.6 µM (inactive) in the test with Hs-578T, > 100 µM (inactive) in the test on LOX IMVI, > 100 µM (inactive) in the test on OVCAR-5 and > 100 µM (inactive) in the test on ACHN.
Turning to `O=C1CSC(/C=C/c2ccccc2)N1c1nc2cc3sc(N4C(=O)CSC4/C=C/c4ccccc4)nc3cc2s1` (stereo not given), the GI50 with UACC-257 is > 86.5 µM (inactive); with DU-145, > 48.9 µM (inactive); with SR it was 14.6 µM (inactive); in the test with UACC-62 it was > 100 µM (inactive); in the test with HOP-92, > 100 µM (inactive); with A549, 9.82 µM (inactive). The GI50 was > 44.8 µM (inactive) in the test on MDA-N; > 74 µM (inactive) with HOP-62; > 87.1 µM (inactive) with NCI/ADR-RES; > 75.9 µM (inactive) in the test on BT-549; 62.2 µM (inactive) in the test with MDA-MB-231; 17.1 µM (inactive) in the test on NCI-H226. Moreover, the GI50 with EKVX is 13.2 µM (inactive); in the test with SF-539 it was 2.83 µM (inactive); with Hs-578T it was > 54 µM (inactive); in the test on LOX IMVI it was > 41.3 µM (inactive); in the test on OVCAR-5, > 65.6 µM (inactive); in the test with ACHN, 42.1 µM (inactive).
Take `CCOC(=O)C1CCn2c(nc3c2c(=O)n(C)c(=O)n3C)S1` (stereo not given): the GI50 in the test on UACC-257 was > 100 µM (inactive); with SR, 77.1 µM (inactive); in the test with UACC-62 it was > 100 µM (inactive); in the test on A549, > 100 µM (inactive); in the test with HOP-62 it was > 100 µM (inactive); with NCI-H226, > 100 µM (inactive). For the same compound, the GI50 with EKVX, in the test with SF-539, in the test with LOX IMVI, in the test with OVCAR-5 and with ACHN was > 100 µM (inactive) throughout.
Consider `COC(=O)C(F)C(Br)C(=O)OC` (stereo not given), for which the GI50 with UACC-257 is 14.6 µM (inactive); with DU-145 it was 9.55 µM (inactive); with SR it was 1.37 µM (inactive); with UACC-62, 15.9 µM (inactive); with HOP-92 it was 2.56 µM (inactive); with A549, 19.7 µM (inactive). Besides, the GI50 with MDA-N is 8.51 µM (inactive); in the test on HOP-62, 16.3 µM (inactive); in the test with NCI/ADR-RES, 2.94 µM (inactive); with BT-549, 16.2 µM (inactive); in the test with MDA-MB-231, 14.6 µM (inactive); in the test on NCI-H226, 20.9 µM (inactive). The GI50 with EKVX is 2.19 µM (inactive); in the test on SF-539, 5.48 µM (inactive); in the test with Hs-578T it was 16.6 µM (inactive); in the test on LOX IMVI it was 6.41 µM (inactive); in the test with OVCAR-5, 16.4 µM (inactive); with ACHN it was 1.86 µM (inactive).
For `CC(OC(=O)C(Cc1ccccc1)NC(=O)C(Cc1ccccc1)NC(=O)OC(C)(C)C)C(=O)OCc1ccccc1` (stereo not drawn) (Boc-Phe-Phe-[Lac]-OBn; configuration not given here), the GI50 with DU-145 is > 100 µM (inactive); in the test on SR, > 100 µM (inactive); with UACC-62, > 10 µM (inactive); in the test with HOP-92 it was > 100 µM (inactive); in the test on MDA-N, > 100 µM (inactive); in the test with HOP-62, > 100 µM (inactive). The GI50 in the test on NCI/ADR-RES, with BT-549, in the test with MDA-MB-231, with NCI-H226, with Hs-578T and in the test with OVCAR-5 was > 100 µM (inactive) in each case.
For the compound `Cc1cc(=O)oc2c1cc1ccc3cccc4ccc2c1c34`, the GI50 was > 100 µM (inactive) with UACC-62; 31.5 µM (inactive) in the test on HOP-92; > 100 µM (inactive) in the test with NCI-H226; > 100 µM (inactive) with EKVX; 58.6 µM (inactive) with SF-539; > 100 µM (inactive) in the test with LOX IMVI. For the same compound, the GI50 with ACHN is 46.7 µM (inactive).
Regarding `COP(=O)(OC)C(N)Cc1c[nH]c2ccccc12` (stereo not given), the GI50 in the test on UACC-257, in the test with DU-145, in the test on A549, in the test on MDA-N, with HOP-62 and with NCI/ADR-RES was > 100 µM (inactive) throughout. Also, the GI50 in the test on MDA-MB-231, in the test on NCI-H226, with Hs-578T, in the test with LOX IMVI, in the test with OVCAR-5 and in the test on ACHN was > 100 µM (inactive) throughout.
Consider `COc1cc(/C=C2\N=C(c3ccccc3)N(C3Nc4cc5c(cc4S3)NC(N3C(=O)/C(=C/c4cc(OC)c(OC)c(OC)c4)N=C3c3ccccc3)S5)C2=O)cc(OC)c1OC` (stereo not given), for which the GI50 was > 100 µM (inactive) in the test on UACC-257; 94.8 µM (inactive) in the test on DU-145; 20.5 µM (inactive) in the test on SR; > 100 µM (inactive) with HOP-92; 23.6 µM (inactive) with A549; 74.3 µM (inactive) with MDA-N. Further, the GI50 with HOP-62 is > 100 µM (inactive); with NCI/ADR-RES, 38.5 µM (inactive); in the test on BT-549, 97.1 µM (inactive); in the test with MDA-MB-231, > 100 µM (inactive); in the test on NCI-H226 it was > 100 µM (inactive); in the test with EKVX, 44.1 µM (inactive). The GI50 with SF-539 is 42 µM (inactive); with Hs-578T, > 100 µM (inactive); with LOX IMVI, 74.1 µM (inactive); in the test with OVCAR-5 it was > 100 µM (inactive); in the test on ACHN, > 100 µM (inactive).
In the case of `O=C1Nc2ccc(Cl)cc2/C1=C\c1c(Cl)nc2sccn12`, the GI50 in the test on UACC-257 is > 100 µM (inactive); in the test with DU-145, 73.5 µM (inactive); with SR it was 0.338 µM (active); with HOP-92, > 100 µM (inactive); with MDA-N it was 1.91 µM (inactive); in the test with HOP-62, 13.9 µM (inactive). Also, the GI50 in the test with NCI/ADR-RES was 3.1 µM (inactive); with BT-549, 7.57 µM (inactive); in the test with MDA-MB-231 it was 2.56 µM (inactive); with LOX IMVI, 7.48 µM (inactive); with OVCAR-5, 14.7 µM (inactive); with ACHN it was > 100 µM (inactive).
